The source of these data is PMC12749748, “Chemically-induced degradation of the endoplasmic-reticulum stress sensor IRE1 by a VHL-recruiting chimera” (Nature Communications, 2025).

Structures are written as SMILES.

Holding throughout (format): cell-based
The subject of one experiment is OPM2 cells. The experiment can be described thus: Incucyte cell confluency, OPM2 cells. The note with it: OPM2 shIRE1 cells, titration. The method, then: For non-adherent AMO1, KMS27, and OPM2 cells, cells were plated at 5000 cells/well in ultra-low attachment (ULA) 96-well plates (Costar, #7007) and centrifuged at 600 × g for 5 min for spheroid formation. For adherent U2OS and Colo201 cells, 2000 cells/well were seeded in a clear flat-bottom 96-well plate (Costar, #3595). Treatments were added at the time of cell seeding, and cells were cultured in complete RPMI media to a final volume of 200 µL/well. Cultures were maintained at 37 °C throughout the duration of the experiment. Cell confluency was tracked using the Incucyte live-cell imaging system (Sartorius S3). Picture frames were captured every 4 h with a 4× objective, and cell confluency (%) from the total well area as a function of time was calculated using the Incucyte software (version 2023 A Rev2).

The next experiment addresses IRE1:VHL (Homo sapiens, UniProt O75460+P40337). The experiment can be described thus: NanoBRET IRE1:VHL interaction, WT IRE1, HEK293T cells. On the set-up: N2731 (HaloTag-VHL); host or cells: HEK293T. The method, then:
8 × 10^5 293T cells per well were seeded in 6-well plates (Costar, #3516) and incubated at 37 °C, 5% CO2 for 6 h. A mixture of 0.2 µg ERN1 (IRE1)-NanoLuc Fusion Vector (Promega, NV1321), 2 µg HaloTag-VHL Fusion Vector (Promega, N2731), 6 µl FuGENE HD Transfection Reagent (Promega, E2311), and 100 µL Opti-MEM I reduced serum medium (Gibco, #31985062) per well was incubated at room temperature for 20 min before adding to cells. For expression of IRE1 mutants, site-directed mutagenesis was performed using the ERN1-NanoLuc Fusion Vector as the DNA template, and the transfection mixture was prepared in the same way as WT IRE1. After 18 h, cells from 6-well plates were trypsinized, resuspended in Opti-MEM I reduced serum medium, and reseeded into 96-well plates (Costar, #3917), with or without the addition of HaloTag NanoBRET 618 Ligand (Promega, G9801). […] After 2 h of G6374 treatment, NanoBRET Nano-Glo Substrate (Promega, N1571) was added to cells. The 96-well plates were imaged by GloMax Discover Microplate Reader (Promega, GM3000) with the default “BRET: NanoBRET 618” protocol (Donor: 450 BP; Acceptor: 600 LP; Integration: 0.3 s). Data analysis was performed according to the user manual.

Experiment [1] has as its system kinases inhibited by 90% or more. The experiment can be described thus: Immunoblot of kinases inhibited by 90% or more, for depletion in AMO1 and KMS27 cells. The settings on record: AMO1 and KMS27 cells, 0.1, 0.3 and 1 µM, 4 h. The method, then:
Cells were lysed in buffer containing 20 mM HEPES 7.2, 150 mM NaCl, and 1% Triton X-100, supplemented with fresh protease and phosphatase inhibitors (Invitrogen, #78440), cleared by centrifugation at 12,000 × g for 10 min, and analyzed by BCA protein assay (Thermo Fisher Scientific, #23227). Equal protein amounts were loaded, separated by SDS-PAGE, electrotransferred to nitrocellulose membranes using the iBLOT2 system (Invitrogen), and blocked in 5% nonfat milk solution for 60 min. Membranes were probed with primary antibodies at 1:1000 dilution in 5% milk at 4 °C overnight. Signal was detected using appropriate horseradish peroxidase (HRP)-conjugated secondary antibodies at 1:10,000 in 5% milk at room temperature for 1–2 h. Bands were visualized by the Azure 600 western blot imaging system (Azure Biosystems). For in vitro ubiquitination assays performed with Me-Ub, bands were visualized by the Odyssey CLx Imager (LI‑COR) after incubating the blots with the IRDye 800CW (LI-COR) secondary antibodies at 1:10,000 in Intercept Blocking Buffer (LI-COR) at room temperature for 1–2 h. […]
The kinome selectivity of G6374 was assessed at 1 μM for 1 h versus a panel of 220 human kinases (SelectScreen Kinase Profiling Services, Thermo Fisher Scientific). […]

Sequence of IRE1:VHL (O75460 19-977): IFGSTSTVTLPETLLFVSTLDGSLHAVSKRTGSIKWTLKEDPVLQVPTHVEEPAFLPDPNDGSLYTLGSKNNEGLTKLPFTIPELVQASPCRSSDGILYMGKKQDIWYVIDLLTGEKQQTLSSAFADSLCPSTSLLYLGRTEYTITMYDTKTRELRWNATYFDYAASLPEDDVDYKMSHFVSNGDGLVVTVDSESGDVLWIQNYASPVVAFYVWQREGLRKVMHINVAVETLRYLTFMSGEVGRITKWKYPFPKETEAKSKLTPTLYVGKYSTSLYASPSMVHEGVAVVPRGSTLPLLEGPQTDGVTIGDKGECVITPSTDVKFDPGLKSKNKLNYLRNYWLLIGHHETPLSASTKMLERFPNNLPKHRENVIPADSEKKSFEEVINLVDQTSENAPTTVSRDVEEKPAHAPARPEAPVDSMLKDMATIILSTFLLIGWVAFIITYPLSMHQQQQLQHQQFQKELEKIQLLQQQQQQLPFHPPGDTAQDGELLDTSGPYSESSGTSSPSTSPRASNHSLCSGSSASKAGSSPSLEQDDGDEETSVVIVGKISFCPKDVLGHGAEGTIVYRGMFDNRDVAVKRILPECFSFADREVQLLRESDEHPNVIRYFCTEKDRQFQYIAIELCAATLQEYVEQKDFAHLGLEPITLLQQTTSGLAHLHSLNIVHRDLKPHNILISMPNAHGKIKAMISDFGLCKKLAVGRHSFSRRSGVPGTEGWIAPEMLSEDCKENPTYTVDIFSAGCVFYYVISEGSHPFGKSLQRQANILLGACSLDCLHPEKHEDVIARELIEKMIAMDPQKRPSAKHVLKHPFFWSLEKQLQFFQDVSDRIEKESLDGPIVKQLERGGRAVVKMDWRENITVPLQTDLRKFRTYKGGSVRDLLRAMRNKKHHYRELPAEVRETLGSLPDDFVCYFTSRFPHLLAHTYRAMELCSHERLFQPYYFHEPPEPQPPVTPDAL
Sequence of IRE1:VHL (P40337 whole entry, the tested form may be a part): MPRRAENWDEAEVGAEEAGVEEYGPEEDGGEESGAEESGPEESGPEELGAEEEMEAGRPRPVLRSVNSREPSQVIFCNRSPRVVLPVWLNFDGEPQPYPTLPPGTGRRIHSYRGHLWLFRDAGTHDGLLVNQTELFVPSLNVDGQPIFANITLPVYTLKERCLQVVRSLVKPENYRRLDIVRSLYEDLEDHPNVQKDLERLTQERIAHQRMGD
Sequence of IRE1:VHL (Q15369 whole entry partner, the tested form may be a part): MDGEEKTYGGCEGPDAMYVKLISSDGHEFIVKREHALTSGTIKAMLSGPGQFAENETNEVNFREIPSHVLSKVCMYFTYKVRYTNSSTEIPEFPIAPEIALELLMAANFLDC
Sequence of IRE1:VHL (Q15370 whole entry partner, the tested form may be a part): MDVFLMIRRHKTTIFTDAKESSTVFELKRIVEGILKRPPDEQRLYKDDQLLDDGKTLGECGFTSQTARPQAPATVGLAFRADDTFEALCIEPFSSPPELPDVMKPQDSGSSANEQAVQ
Sequence of IRE1:VHL (Q13617 whole entry partner, the tested form may be a part): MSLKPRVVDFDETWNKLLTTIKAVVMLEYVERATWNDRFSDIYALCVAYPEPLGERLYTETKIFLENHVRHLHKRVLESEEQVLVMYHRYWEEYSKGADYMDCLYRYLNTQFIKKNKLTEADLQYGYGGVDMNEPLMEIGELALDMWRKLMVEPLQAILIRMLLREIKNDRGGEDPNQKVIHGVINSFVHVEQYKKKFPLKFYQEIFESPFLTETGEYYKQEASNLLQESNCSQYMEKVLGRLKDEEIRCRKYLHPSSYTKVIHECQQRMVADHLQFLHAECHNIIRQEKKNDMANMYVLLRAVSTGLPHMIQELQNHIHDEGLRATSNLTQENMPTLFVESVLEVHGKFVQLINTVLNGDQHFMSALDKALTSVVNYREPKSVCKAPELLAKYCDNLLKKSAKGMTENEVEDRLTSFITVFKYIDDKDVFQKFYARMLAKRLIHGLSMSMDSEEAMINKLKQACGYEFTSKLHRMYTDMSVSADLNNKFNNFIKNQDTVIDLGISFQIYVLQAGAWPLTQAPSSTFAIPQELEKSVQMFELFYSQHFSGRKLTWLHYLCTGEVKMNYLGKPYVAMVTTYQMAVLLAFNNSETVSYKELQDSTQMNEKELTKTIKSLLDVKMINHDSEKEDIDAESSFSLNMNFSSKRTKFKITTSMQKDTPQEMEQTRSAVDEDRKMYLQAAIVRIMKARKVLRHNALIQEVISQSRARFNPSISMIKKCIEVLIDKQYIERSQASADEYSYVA
Sequence of IRE1:VHL (P62877 whole entry partner, the tested form may be a part): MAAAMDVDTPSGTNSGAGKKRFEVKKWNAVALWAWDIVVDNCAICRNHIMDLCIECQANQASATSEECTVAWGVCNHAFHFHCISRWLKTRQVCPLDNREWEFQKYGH

As for `Cc1ncsc1-c1ccc(CNC(=O)[C@@H]2C[C@@H](O)CN2C(=O)[C@@H](NC(=O)CCCCN2CCN([C@H]3CC[C@H](Nc4ncc5ccc(=O)n(C(C)C)c5n4)CC3)CC2)C(C)(C)C)cc1` [G6374], the “growth inhibition (cell confluency)” value with OPM2 cells is recorded as “concentration-dependent growth inhibition”. Besides, at IRE1:VHL, the concentration for a half-maximal effect (EC50) worked out at 0.11 ± 0.03 µM. The “EC50 of IRE1:VHL interaction (NanoBRET ratio)” value at IRE1:VHL (WT IRE1, HEK293T, estimated) is 0.11 µM. In experiment [1], the “depletion of the other eight kinases (JNK3 not detectable)” value is recorded as “not appreciably depleted”.
